Our source for the IC50 and half-life values is patent publication US8912209B2, “Rock inhibitors” (Amakem NV, priority 2010, dated 2014).

Broadly, the IC50 is the midpoint of a concentration-inhibition curve.

In one data set the target is T1, ROCK II (Homo sapiens, UniProt O75116).
T1 construct: purchased Proqinase
As to the kind of experiment: ROCK II kinase inhibition, Method 1 Proqinase setup (33P radioisotopic protein kinase assay). The data set is classed as biochemical. To be noted: 33P radioisotopic assay, 1 μM ATP, read-out: IC50 Meth. 1. On the procedure:
A ^33P radioisotopic protein kinase assay is used to determine the IC50 for inhibiting ROCK II. A final 50 μl reaction cocktail, containing 60 mM HEPES-NaOH (pH 7.5), 3 mM MgCl2, 3 mM MnCl2, 3 μM Na-orthovanadate, 1.2 mM DTT, 1 μM ATP, 50 μg/ml PEG20.000, 1% (v/v) DMSO, 1 μM ATP (approx. 3×10^5 cpm ^33P-γ-ATP), the substrate (Substrate: S6 peptide—2000 ng/well) and recombinant protein kinase (0.5 nM-2.5 ng/well) is mixed on a shaker and incubated at 30° C. for 80 minutes. The reaction is stopped by the addition of 50 μl of a 2% solution of H3PO4 and mixed on a shaker. After washing twice with 200 μl of a 0.9% solution of NaCl, the dry plate is counted.

A further data set deals with T2, ROCKα/ROCKII (Homo sapiens, UniProt O75116).
T2 construct: purchased Upstate Biotechnology 14-451
As to the kind of experiment: ROCK inhibition, Method 2 fluorescence polarization (FP) assay, ROCK IMAP Kit. The data set is classed as biochemical. The conditions noted are these: 10 μM ATP, read-out: IC50 Meth. 2. (In general: In fluorescence polarisation assays a small probe gives low polarisation when free and higher when bound to something large.)

For a further data set, the system named is LPS-stimulated PBMC. The data set is described as follows: Cellular assay using LPS-stimulated PBMC, TNF release (ELISA), in the absence and presence of plasma. It counts as cell-based. From the text:
C.1.2. Activity Against ROCK in a Cellular Assay Using LPS-Stimulated PBMC in the Absence and Presence of Plasma
To ensure the stimulation of PBMC by LPS, the medium is enriched with LPS-binding protein (LBP) that will facilitate the delivery of LPS to the CD14 receptor and enhance the LPS-induced immune response. Cytokines secreted by activated PBMC include TNF, which is detected by means of a colorimetric ELISA. In the presence of an active compound, the release of TNF is inhibited in a concentration-dependent manner. Subsequently a control assay using the same set up in the presence of plasma is included.

Another data set deals with Guinea pig trachea rings. The data set is described as follows: Smooth muscle relaxing activity in organ baths of guinea pig trachea (carbachol). To be noted: Cavia porcellus; guinea pig trachea rings contracted with carbachol. On the procedure:
C.1.3. Smooth Muscle Relaxing Activity of Generated Soft ROCK Inhibitors In Vitro Using Organ Baths of Guinea Pig Trachea
Guinea pig trachea rings are prepared and incubated with a fixed concentration of the bronchoconstrictive agent carbachol. Then, increasing concentrations of the soft ROCK inhibitors are added and the contractive properties of the trachea measured for each of the compound concentrations. The study set-up allows the determination of an IC50, represented by the concentration of compound that induces a force equal to 50% of that observed for the vehicle-treated trachea.
In addition retention on the target is assessed using the above described organ baths of guinea pig trachea. In brief, upon induction of maximal relaxation with the ROCK inhibitors, trachea rings are thoroughly washed. Then, carbachol is added again and contractive properties are measured to determine whether the inhibitory activity of the ROCK inhibitors is prolonged upon the washout. A prolonged inhibitory activity after the washout is highly indicative for a prolonged retention of the compound at the lungs in vivo.

Data set [1] in a line: Stability assay in rat plasma. To be noted: 1 μM in rat plasma, LC-MS/MS; read-out: t½ rat plasma. It counts as in vitro ADME. On the procedure: (§1) C.2.1. Stability Assay in Human and/or Rat Plasma
(§2) Compounds are incubated at a concentration of 1 μM in rat (mice or rabbit) or human plasma. Samples are taken at fixed time points and the remnant of compound is determined by LC-MS/MS after protein precipitation. Half life is expressed in minutes.

A short description of data set [2]: Stability assay in human plasma. It counts as in vitro ADME. The conditions noted are these: 1 μM in human plasma, LC-MS/MS; read-out: t½ human plasma. On the procedure: as §1, §2
Data set [3] can be described thus: Stability towards drug metabolizing enzymes in lung S9. The data set is classed as in vitro ADME. The conditions noted are these: human, lung S9 from smokers with NADPH, UDPGA, PAPS and GSH, read-out: t½ human lung S9. On the procedure:
i) C.2.2. Stability Towards Drug Metabolizing Enzymes in Lung S9
A 1 μM solution of the ROCK inhibitors is incubated with a reaction mixture containing lung S9 (from smokers) as well as the cofactors NADPH, UDPGA, PAPS and GSH. Samples are collected at 0, 15, 30 and 60 minutes post incubation. Negative control samples incubated with ROCK inhibitors and S9 fraction in the absence of cofactors are run in parallel. By using LC-MS/MS analysis, the percent of ROCK compounds remaining at each time point, the metabolic half-life of the ROCK compounds (expressed in minutes) and the metabolic half-life of the control compounds are determined.

The nature of data set [4]: Stability assay in rabbit aqueous humor. To be noted: 1 μM in rabbit aqueous humor, LC-MS/MS; read-out: t½ rabbits AH. The data set is classed as in vitro ADME. On the procedure:
i) C.2.3. Stability Assay in Rabbit Aqueous Humor
Compounds are incubated at a concentration of 1 μM in rabbit aqueous humor (AH). Samples are taken at fixed time points and the remnant of compound is determined by LC-MS/MS after protein precipitation.

The structures appear in SMILES notation. Like-named read-outs stand apart in the source and are kept apart here.

T2 sequence (O75116 whole entry): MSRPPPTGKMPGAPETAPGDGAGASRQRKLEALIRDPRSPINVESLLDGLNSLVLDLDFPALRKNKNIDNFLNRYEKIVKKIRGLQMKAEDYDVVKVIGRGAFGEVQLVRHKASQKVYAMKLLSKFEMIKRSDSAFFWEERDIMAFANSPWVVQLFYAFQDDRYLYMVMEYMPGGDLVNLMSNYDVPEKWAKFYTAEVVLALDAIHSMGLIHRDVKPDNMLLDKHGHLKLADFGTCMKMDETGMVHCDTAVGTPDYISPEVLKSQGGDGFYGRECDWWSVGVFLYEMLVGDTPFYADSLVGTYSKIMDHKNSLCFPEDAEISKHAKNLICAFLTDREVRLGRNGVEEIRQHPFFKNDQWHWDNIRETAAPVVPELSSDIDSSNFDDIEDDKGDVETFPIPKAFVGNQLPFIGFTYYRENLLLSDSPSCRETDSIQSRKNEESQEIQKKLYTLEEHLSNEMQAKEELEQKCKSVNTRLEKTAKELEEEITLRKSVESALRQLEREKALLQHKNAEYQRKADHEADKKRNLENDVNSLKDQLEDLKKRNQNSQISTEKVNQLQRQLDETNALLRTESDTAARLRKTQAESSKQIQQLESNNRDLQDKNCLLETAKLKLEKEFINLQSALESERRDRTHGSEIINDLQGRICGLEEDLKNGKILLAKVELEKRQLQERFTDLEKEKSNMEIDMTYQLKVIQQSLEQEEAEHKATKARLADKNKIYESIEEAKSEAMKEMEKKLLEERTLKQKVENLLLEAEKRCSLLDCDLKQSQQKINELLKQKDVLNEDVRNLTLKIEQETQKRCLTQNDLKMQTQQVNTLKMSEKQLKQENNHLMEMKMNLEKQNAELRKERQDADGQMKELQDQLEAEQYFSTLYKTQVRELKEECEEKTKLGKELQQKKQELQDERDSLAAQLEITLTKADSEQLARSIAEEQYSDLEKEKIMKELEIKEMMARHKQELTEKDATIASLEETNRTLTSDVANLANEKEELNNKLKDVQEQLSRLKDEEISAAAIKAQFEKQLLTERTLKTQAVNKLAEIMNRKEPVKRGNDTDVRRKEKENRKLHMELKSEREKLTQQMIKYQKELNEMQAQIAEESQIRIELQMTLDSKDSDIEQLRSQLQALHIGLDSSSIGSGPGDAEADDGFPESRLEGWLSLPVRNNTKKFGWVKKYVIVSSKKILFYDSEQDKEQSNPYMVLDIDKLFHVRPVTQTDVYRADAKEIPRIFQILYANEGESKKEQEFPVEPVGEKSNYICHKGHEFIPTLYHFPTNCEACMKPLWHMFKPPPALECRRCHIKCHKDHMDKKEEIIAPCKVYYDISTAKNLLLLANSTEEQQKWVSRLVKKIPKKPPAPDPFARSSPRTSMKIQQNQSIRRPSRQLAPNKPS
T1 sequence (O75116 whole entry): as above

For the compound `CC(N)c1ccc(C(=O)Nc2ccncc2F)cc1-c1cccc(C(=O)OCC2CCCO2)c1` (centres unmarked) [Compound 46, 2′-(1-Amino-ethyl)-5′-(3-fluoro-pyridin-4-ylcarbamoyl)-biphenyl-3-carboxylic acid tetrahydro-furan-2-ylmethyl ester], the IC50 is 100 to 1000 nM on ROCK II; less than 100 nM on ROCKα/ROCKII; more than 10000 nM in the data set on LPS-stimulated PBMC (in the presence of plasma, read-out: IC50 in the presence of plasma); 120 nM with LPS-stimulated PBMC (without plasma, read-out: IC50 (assay without plasma)); 500 nM in the data set with Guinea pig trachea rings. For the same compound, the half-life at 1 μM in data set [1] was 5.8 min; in data set [2], 1.9 min; in data set [3] it was 53 min; in data set [4], more than 60 min.
In the case of `CC(N)c1ccc(C(=O)Nc2ccncc2F)cc1-c1cccc(C(=O)OCC2CCCCO2)c1` (centres unmarked) [Compound 47, 2′-(1-Amino-ethyl)-5′-(3-fluoro-pyridin-4-ylcarbamoyl)-biphenyl-3-carboxylic acid tetrahydro-pyran-2-ylmethyl ester], the concentration for half-maximal inhibition (IC50) at ROCK II was 100 to 1000 nM; at ROCKα/ROCKII, less than 100 nM. Moreover, the half-life at 1 μM in data set [1] is 4.5 min; in data set [2], 9.8 min; in data set [3], more than 60 min.
Take `CC(N)c1ccc(C(=O)Nc2ccncc2)cc1-c1cccc(C(=O)OCCO)c1` (centres unmarked) [Compound 65, 2′-(1-Amino-ethyl)-5′-(pyridin-4-ylcarbamoyl)-biphenyl-3-carboxylic acid 2-hydroxy-ethyl ester]: the IC50 on ROCK II and at ROCKα/ROCKII was less than 100 nM each time. In addition, the half-life at 1 μM in data set [3] is more than 60 min.
On to `CC(N)c1ccc(C(=O)Nc2ccncc2)cc1-c1cccc(C(=O)OCc2ccoc2)c1` (centres unmarked) [Compound 90, 2′-(1-Amino-ethyl)-5′-(pyridin-4-ylcarbamoyl)-biphenyl-3-carboxylic acid furan-3-ylmethyl ester], for which the IC50 on ROCK II was less than 100 nM; on ROCKα/ROCKII it was 100 to 1000 nM.
Consider `CCSC(=O)c1cccc(-c2cc(C(=O)Nc3ccncc3)ccc2CN)c1` [Compound 97, 2′-Aminomethyl-5′-(pyridin-4-ylcarbamoyl)-biphenyl-3-carbothioic acid S-ethyl ester], for which the IC50 at ROCK II was less than 100 nM. Besides, the half-life at 1 μM in data set [1] turned out to be 38 min; in data set [2] it was 44 min.
As for `CC(N)c1ccc(C(=O)Nc2ccncc2)cc1-c1cccc(OCCCSC2CCOC2=O)c1` (centres unmarked) [Compound 131, 6-(1-Amino-ethyl)-3′-[3-(2-oxo-tetrahydro-furan-3-ylsulfanyl)-propoxy]-biphenyl-3-carboxylylic acid pyridin-4-ylamide], the IC50 at ROCK II and at ROCKα/ROCKII was 100 to 1000 nM each time.
Take `CC(N)c1ccc(C(=O)Nc2ccncc2)cc1-c1cccc(OC2CCOC2=O)c1` (centres unmarked) [Compound 134, 6-(1-Amino-ethyl)-3′-(2-oxo-tetrahydro-furan-3-yloxy)-biphenyl-3-carboxylic acid pyridin-4-ylamide]: the IC50 at ROCK II was 100 to 1000 nM; on ROCKα/ROCKII, less than 100 nM.
For the compound `COC(=O)COc1cccc(-c2cc(C(=O)Nc3ccncc3)ccc2CN)c1` [Compound 137, [2′-Aminomethyl-5′-(pyridin-4-ylcarbamoyl)-biphenyl-3-yloxy]-acetic acid methyl ester], the IC50 at ROCK II was 100 to 1000 nM. The half-life at 1 μM in data set [1] was less than 1 min; in data set [2] it was 1.9 min.
Take `CCCOC(=O)CCc1cccc(-c2cc(C(=O)Nc3ccncc3)ccc2C(C)N)c1` (centres unmarked) [Compound 166, 3-[2′-(1-Amino-ethyl)-5′-(pyridin-4-ylcarbamoyl)-biphenyl-3-yl]-propionic acid propyl ester]: the IC50 at ROCK II and at ROCKα/ROCKII was 100 to 1000 nM throughout.
Consider `CC(N)c1ccc(C(=O)Nc2ccncc2)cc1-c1cccc(CCC(=O)Oc2ccccc2)c1` (centres unmarked) [Compound 167, 3-[2′-(1-Amino-ethyl)-5′-(pyridin-4-ylcarbamoyl)-biphenyl-3-yl]-propionic acid phenyl ester], for which the IC50 on ROCK II was 100 to 1000 nM; at ROCKα/ROCKII, less than 100 nM.
For `COC(=O)c1cc(-c2cc(C(=O)Nc3ccncc3)ccc2C(C)N)c[nH]1` (centres unmarked) [Compound 168, 4-[2-(1-Amino-ethyl)-5-(pyridin-4-ylcarbamoyl)-phenyl]-1H-pyrrole-2-carboxylic acid methyl ester], the IC50 at ROCK II and at ROCKα/ROCKII was 100 to 1000 nM in each case.
Take `CCCOC(=O)c1cc(-c2cc(C(=O)Nc3ccncc3)ccc2C(C)N)c[nH]1` (centres unmarked) [Compound 169, 4-[2-(1-Amino-ethyl)-5-(pyridin-4-ylcarbamoyl)-phenyl]-1H-pyrrole-2-carboxylic acid propyl ester]: at ROCK II, the IC50 is less than 100 nM. The half-life at 1 μM in data set [4] is more than 60 min.
On to `CC(N)c1ccc(C(=O)Nc2ccncc2)cc1-c1c[nH]c(C(=O)Oc2ccccc2)c1` (centres unmarked) [Compound 170, 4-[2-(1-Amino-ethyl)-5-(pyridin-4-ylcarbamoyl)-phenyl]-1H-pyrrole-2-carboxylic acid phenyl ester], for which the results for the IC50 at ROCK II and at ROCKα/ROCKII were 100 to 1000 nM and less than 100 nM, respectively.
As for `CCCOC(=O)c1cc2c(-c3cc(C(=O)Nc4ccncc4)ccc3C(C)N)cccc2[nH]1` (centres unmarked) [Compound 172, 4-[2-(1-Amino-ethyl)-5-(pyridin-4-ylcarbamoyl)-phenyl]-1H-indole-2-carboxylic acid propyl ester], the IC50 on ROCK II and at ROCKα/ROCKII was 100 to 1000 nM in each case.
